In PubChem BioAssay (NCI):
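48-hour exposure; five concentrations; linearly interpolated endpoints. The concentration for full growth arrest is given as TGI.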

Legend:
Assay in all cases: NCI anticancer screen, dose series, 48 h
[1] = test system: K-562 leukemia
[2] = test system: IGROV1 ovarian
[3] = test system: SF-295 CNS
[4] = test system: SF-539 CNS
[5] = test system: SNB-75 CNS
[6] = test system: TK-10 renal
[7] = test system: OVCAR-4 ovarian
[8] = test system: UO-31 renal
[9] = test system: DLD-1 colon
[10] = test system: HOP-92 NSCLC
[11] = test system: SN12C renal
[12] = test system: SK-MEL-2 melanoma
[13] = test system: SW-620 colon
[14] = test system: CAKI-1 renal
[15] = test system: A498 renal
[16] = test system: HCT-116 colon
[17] = test system: RPMI-8226 leukemia
[18] = test system: SNB-78 CNS
[19] = test system: RXF-631 renal
[20] = test system: EKVX NSCLC
[21] = test system: SR leukemia
[22] = test system: CCRF-CEM leukemia
[23] = test system: UACC-62 melanoma
[24] = test system: MOLT-4 leukemia
[25] = test system: RXF 393 renal
[26] = test system: HCC-2998 colon
[27] = test system: UACC-257 melanoma
[28] = test system: COLO 205 colon
[29] = test system: HCT-15 colon
[30] = test system: HL-60(TB) leukemia
[31] = test system: SK-OV-3 ovarian
[32] = test system: SK-MEL-28 melanoma
[33] = test system: M19-MEL melanoma
[34] = test system: LXFL 529 NSCLC
[35] = test system: U251 CNS
[36] = test system: M14 melanoma
[37] = test system: HOP-62 NSCLC
[38] = test system: SK-MEL-5 melanoma
[39] = test system: DMS 273 small cell lung
[40] = test system: HT29 colon
[41] = test system: KM12 colon
[42] = test system: OVCAR-5 ovarian
[43] = test system: A549 NSCLC
[44] = test system: LOX IMVI melanoma
[45] = test system: DMS 114 small cell lung
[46] = test system: SNB-19 CNS
[47] = test system: 786-0 renal
[48] = test system: NCI-H226 lung
[49] = test system: NCI-H460 lung
[50] = test system: ACHN renal
[51] = test system: SF-268 CNS
[52] = test system: KM20L2 colon
[53] = test system: NCI-H23 lung
[54] = test system: MALME-3M melanoma

Question: With `CC(C)=CC(=O)c1c(C(=O)O)nc2ccccc2[n+]1[O-]` as the molecule, how does the TGI [1] read?
Answer: > 100 µM

Question: And the TGI [2]?
Answer: > 100 µM

Question: And the TGI [3]?
Answer: > 100 µM

Question: And the TGI [4]?
Answer: > 100 µM

Question: And the TGI [5]?
Answer: > 100 µM

Question: And the TGI [6]?
Answer: > 100 µM

Question: What about the TGI [7] of the same molecule?
Answer: > 100 µM

Question: What about the TGI [8] of the same molecule?
Answer: > 100 µM

Question: And the TGI [9]?
Answer: > 100 µM

Question: What about the TGI [10] of the same molecule?
Answer: > 100 µM

Question: What about the TGI [11] of the same molecule?
Answer: > 100 µM

Question: And the TGI [12]?
Answer: > 100 µM

Question: What about the TGI [13] of the same molecule?
Answer: > 100 µM

Question: And the TGI [14]?
Answer: > 100 µM

Question: What about the TGI [15] of the same molecule?
Answer: > 100 µM

Question: And the TGI [16]?
Answer: > 100 µM

Question: What about the TGI [17] of the same molecule?
Answer: > 100 µM

Question: And the TGI [18]?
Answer: > 100 µM

Question: What about the TGI [19] of the same molecule?
Answer: > 100 µM

Question: And the TGI [20]?
Answer: > 100 µM

Question: And the TGI [21]?
Answer: > 100 µM

Question: And the TGI [22]?
Answer: > 100 µM

Question: What about the TGI [23] of the same molecule?
Answer: > 100 µM

Question: What about the TGI [24] of the same molecule?
Answer: > 100 µM

Question: And the TGI [25]?
Answer: > 100 µM

Question: What about the TGI [26] of the same molecule?
Answer: > 100 µM

Question: And the TGI [27]?
Answer: > 100 µM

Question: What about the TGI [28] of the same molecule?
Answer: > 100 µM

Question: What about the TGI [29] of the same molecule?
Answer: > 100 µM

Question: What about the TGI [30] of the same molecule?
Answer: > 100 µM

Question: What about the TGI [31] of the same molecule?
Answer: > 100 µM

Question: And the TGI [32]?
Answer: > 100 µM

Question: What about the TGI [33] of the same molecule?
Answer: > 100 µM

Question: And the TGI [34]?
Answer: > 100 µM

Question: And the TGI [35]?
Answer: > 100 µM

Question: What about the TGI [36] of the same molecule?
Answer: > 100 µM

Question: What about the TGI [37] of the same molecule?
Answer: > 100 µM

Question: What about the TGI [38] of the same molecule?
Answer: > 100 µM

Question: What about the TGI [39] of the same molecule?
Answer: > 100 µM

Question: And the TGI [40]?
Answer: > 100 µM

Question: And the TGI [41]?
Answer: > 100 µM

Question: And the TGI [42]?
Answer: > 100 µM

Question: And the TGI [43]?
Answer: > 100 µM

Question: And the TGI [44]?
Answer: > 100 µM

Question: What about the TGI [45] of the same molecule?
Answer: > 100 µM

Question: And the TGI [46]?
Answer: > 100 µM

Question: What about the TGI [47] of the same molecule?
Answer: > 100 µM

Question: And the TGI [48]?
Answer: > 100 µM

Question: And the TGI [49]?
Answer: > 100 µM

Question: What about the TGI [50] of the same molecule?
Answer: > 100 µM

Question: And the TGI [51]?
Answer: > 100 µM

Question: And the TGI [52]?
Answer: > 100 µM

Question: And the TGI [53]?
Answer: > 100 µM

Question: For `COc1cc([C@@H]2Oc3cc4oc(-c5ccccc5)cc(=O)c4c(O)c3O[C@H]2OC)ccc1O`, which TGI [1] is on record?
Answer: 25.9 µM

Question: What about the TGI [2] of the same molecule?
Answer: 53.1 µM

Question: And the TGI [4]?
Answer: 30.6 µM

Question: And the TGI [5]?
Answer: 25.1 µM

Question: And the TGI [7]?
Answer: 29.1 µM

Question: And the TGI [9]?
Answer: 21.2 µM

Question: And the TGI [10]?
Answer: 39.5 µM

Question: What about the TGI [11] of the same molecule?
Answer: 25.5 µM

Question: And the TGI [12]?
Answer: 31.2 µM

Question: What about the TGI [14] of the same molecule?
Answer: 34.4 µM

Question: And the TGI [15]?
Answer: 32.3 µM

Question: And the TGI [16]?
Answer: 19.6 µM

Question: And the TGI [17]?
Answer: 25.9 µM

Question: And the TGI [18]?
Answer: 38.2 µM

Question: And the TGI [19]?
Answer: 32.6 µM

Question: And the TGI [21]?
Answer: 18.5 µM

Question: What about the TGI [22] of the same molecule?
Answer: 27.8 µM

Question: And the TGI [23]?
Answer: 37.7 µM

Question: What about the TGI [24] of the same molecule?
Answer: 21.3 µM

Question: What about the TGI [26] of the same molecule?
Answer: 26.5 µM

Question: What about the TGI [28] of the same molecule?
Answer: 50.2 µM

Question: What about the TGI [30] of the same molecule?
Answer: 8.08 µM

Question: What about the TGI [31] of the same molecule?
Answer: 34.1 µM

Question: And the TGI [32]?
Answer: 16.8 µM

Question: What about the TGI [33] of the same molecule?
Answer: 24 µM

Question: And the TGI [34]?
Answer: 25.2 µM

Question: What about the TGI [36] of the same molecule?
Answer: 24.7 µM

Question: And the TGI [37]?
Answer: 26.9 µM

Question: What about the TGI [39] of the same molecule?
Answer: 14.4 µM

Question: What about the TGI [47] of the same molecule?
Answer: 20.8 µM

Question: And the TGI [48]?
Answer: 38.4 µM

Question: What about the TGI [49] of the same molecule?
Answer: 15.2 µM

Question: What about the TGI [50] of the same molecule?
Answer: 23.1 µM

Question: What about the TGI [51] of the same molecule?
Answer: 19.7 µM

Question: And the TGI [53]?
Answer: 32.4 µM

Question: And the TGI [54]?
Answer: 30.6 µM
